Laboratory results published in patent US9814754B2, “Combinations with a backbone-cyclized peptide” (POLYPHOR AG, priority 2012, dated 2017).
Square brackets hold non-standard residues; d marks the D form. dDab = NCC[C@@H](N)C(=O)O; Orn = NCCC[C@H](N)C(=O)O; Dab = NCC[C@H](N)C(=O)O

Experiments:
Assay type in all cases: in vivo
[1] = tested on: Pseudomonas aeruginosa clinical isolate PAX11045; experiment: Murine pneumonia model, compound 1 in combination with ertapenem (Example 1)
Experimental: The efficacy and ED50 of the compound of formula (I) (“compound 1”) in combination with ertapenem was determined against Pseudomonas aeruginosa clinical isolate PAX11045 in a pneumonia model in mice. Colony counts in lung were determined at 20 hours post treatment.
(§1) Fresh overnight colonies of PAX11045 from a 5% Horse Blood Agar plate were suspended in 0.9% sterile saline to approximately 10^8 CFU/ml and further diluted to approximately 5×10^7 CFU/ml. Female mice (DBA/2, outbred, 18-22 g, Charles River) were anesthetized with 0.1 ml of Zoletil and inoculated via the nose with a pipette with 0.05 ml of the bacteria suspension containing approximately 10^6 CFU. 4 hours after inoculation, the mice were treated orally with 45 μl neurophen (20 mg ibuprofen/ml corresponding to approximately 30 mg/kg) as pain relief.
1 g of ertapenem (Invanz™, MSD Denmark Aps) was dissolved in 10 ml 0.9% sterile saline to a concentration of 100 mg/ml and further diluted with saline to 5 mg/ml. The mice were treated subcutaneously with 0.2 ml in the neck region with a single dose at 3 hours post infection corresponding to 50 mg/kg on the basis of a mean animal weight of 20 g.
(§2) The mice were treated subcutaneously with 0.2 ml in the neck region with a single dose at 4 hours post infection with a dose calculation based on a mean animal weight of 20 g.
(§3) Colony counts were determined post inoculation at 4 hours (untreated mice) and 24 hours (treated and vehicle-only treated mice). Immediately after the mice were sacrificed, the lungs were collected and frozen at −20° C. After thawing, the organs were homogenized in 1 ml 0.9% saline. Each sample was then 10 fold diluted in saline and 20 μl spots were applied on blood agar plates. All agar plates were incubated 18-24 hours at 35° C. in ambient air.
The CFU/ml in the inoculum was determined to 7.65 log10 CFU/ml corresponding to 6.35 log10 CFU/mouse.
At 4 hours after infection the mean log10 CFU/lung was 5.14 and the CFU level remained at a similar level after 24 hours in the vehicle-only group.

[2] = tested on: Pseudomonas aeruginosa clinical isolate PAX11045; experiment: Murine pneumonia model, compound 1 in combination with azithromycin (Example 2)
Experimental: The efficacy and ED50 of the compound of formula (I) (“compound 1”) in combination with azithromycin was determined against Pseudomonas aeruginosa clinical isolate PAX11045 in a pneumonia model in mice. Colony counts in lung were determined at 20 hours post treatment.
as §1, with “17-23” for “18-22”
480 mg of azithromycin (Zitromax™, Pfizer) were dissolved in 4.8 ml 0.9% sterile saline to a concentration of 100 mg/ml and further diluted with saline to 5 mg/ml. The mice were treated subcutaneously with 0.2 ml in the neck region with a single dose at 3 hours post infection corresponding to 50 mg/kg on the basis of a mean animal weight of 20 g.
as §2, §3

[3] = tested on: Pseudomonas aeruginosa clinical isolate PA18298; experiment: Murine pneumonia model, compound 1 alone (Reference 3)
Experimental: Efficacy in Murine Pneumonia Model Against Pseudomonas aeruginosa PA18298 and Estimation of ED50
The efficacy and ED50 of the compound of formula (I) (“compound 1”) was determined against Pseudomonas aeruginosa clinical isolate PA18298 in a pneumonia model in mice. Colony counts in the lungs were determined at 18-20 hours post treatment.
as §1, with “PA18298” for “PAX11045”, “4×10^7” for “5×10^7”, “Zoletil (tiletamine+zolazepam)” for “Zoletil”, “1×10^6” for “10^6”
One vial containing 10 mg of active compound 1 was dissolved in 2 ml 0.9% sterile saline to a concentration of 5 mg/ml and was further diluted with saline to 2, 1, 0.75, 0.55, 0.275 and 0.137 mg/ml. The mice were treated subcutaneously with 0.2 ml in the neck region with a single dose at 4 hours post infection with a dose calculation based on a mean animal weight of 20 g. As positive control colistin was used in the same manner with a fixed dose of 20 mg/kg.
as §3, with “10-fold” for “10 fold”, “18-48” for “18-24”
The CFU/ml in the inoculum was determined to 7.49 log10 CFU/ml corresponding to 6.20 log10 CFU/mouse.
At 4 hours after infection the mean log10 CFU/lung was 5.05 and the CFU level declined to 2.62 at 24 hours post inoculation in the vehicle-only group.

[4] = in presence of 50 mg/kg ertapenem, murine lungs
[5] = in presence of 50 mg/kg azithromycin, murine lungs
[6] = compound 1 alone, s.c., murine lungs

cyclo(TWI[Dab][Orn][dDab][Dab]W[Dab][Dab]AS[dP]P) [compound 1]
effect on bacterial loads ([1]; 2.75 mg/kg alone, lung, p<0.001): significant effect on reducing the bacterial loads | CFU levels compared to vehicle treatment ([1]; combination of compound 1 (dose series) and ertapenem 50 mg/kg, lung, p<0.01-p<0.001): concentration dependent significant reduction of the CFU levels | Top level ([1]; compound 1 s.c. in presence of 50 mg/kg ertapenem (s.c., 3 h post infection), murine lungs): −0.34 log10 CFU/ml | 1 log killing dose [1, 4]: 1.14 mg/kg | 2 log killing dose [1, 4]: 1.48 mg/kg | Bottom level [1, 4]: −2.32 log10 CFU/ml | Emax [1, 4]: 1.98 log10 CFU/ml | Static dose [1, 4]: 0.63 mg/kg | ED50 ([1]; in presence of fixed dose of 50 mg/kg ertapenem, murine lungs): 1.24 mg/kg | effect on bacterial loads ([2]; 5.5 mg/kg alone, lung, p<0.001): significant effect on reducing the bacterial loads | CFU levels compared to vehicle treatment ([2]; combination of compound 1 (dose series) and azithromycin 50 mg/kg, lung, p<0.01-p<0.001): concentration dependent significant reduction of the CFU levels | Top level ([2]; compound 1 s.c. in presence of 50 mg/kg azithromycin (s.c., 3 h post infection), murine lungs): −0.10 log10 CFU/ml | 1 log killing dose [2, 5]: 1.2 mg/kg | 2 log killing dose [2, 5]: 2.4 mg/kg | Bottom level [2, 5]: −2.59 log10 CFU/ml | Emax [2, 5]: 2.49 log10 CFU/ml | Static dose [2, 5]: 0.63 mg/kg | ED50 ([2]; in presence of fixed dose of 50 mg/kg azithromycin, murine lungs): 1.74 mg/kg | CFU levels compared to vehicle treatment ([3]; 11-20 mg/kg, lungs, p<0.01-p<0.001): significant reduction of the CFU levels | Top level ([3]; compound 1 alone, s.c. single dose 4 h post infection, murine lungs): −3.60 log10 CFU/ml | Bottom level [3, 6]: −2.48 log10 CFU/ml | Emax [3, 6]: 1.12 log10 CFU/ml | Static dose [3, 6]: 9.15 mg/kg | ED50 ([3]; compound 1 alone, s.c., murine lungs, sigmoidal dose-response model (variable slope)): 26.6 mg/kg
